Measurements taken from the NIST ThermoML archive (doi:10.1016/j.jct.2018.10.015).

Assay: xn = mol fraction of the nth substance listed
Conditions: 101.3 kPa, Liquid; for viscosity: Concentric cylinders viscometry; for mass density: Vibrating tube method

CCCCn1cc[n+](C)c1C.O=S(=O)([N-]S(=O)(=O)C(F)(F)F)C(F)(F)F + CCOC(=O)OCC
Conditions	mass density [kg/m3]	viscosity [mPa·s]
293.15 K, x1 = 0.0996	1078.2	2.172
293.15 K, x1 = 0.199	1156.1	4.104
293.15 K, x1 = 0.299	1216.4	7.648
293.15 K, x1 = 0.3982	1263.9	13.1
293.15 K, x1 = 0.4985	1302.6	21.35
293.15 K, x1 = 0.5979	1334.6	33.14
293.15 K, x1 = 0.698	1361.8	49.42
293.15 K, x1 = 0.8	1385.4	71.45
293.15 K, x1 = 0.9012	1405.7	99.34
293.15 K, x1 = 1	1423.1	133.6
298.15 K, x1 = 0.0996	1072.9	1.989
298.15 K, x1 = 0.199	1151	3.665
298.15 K, x1 = 0.299	1211.4	6.684
298.15 K, x1 = 0.3982	1259	11.19
298.15 K, x1 = 0.4985	1297.7	17.82
298.15 K, x1 = 0.5979	1329.8	27.06
298.15 K, x1 = 0.698	1357.1	39.58
298.15 K, x1 = 0.8	1380.8	56.2
298.15 K, x1 = 0.9012	1401.1	76.75
298.15 K, x1 = 1	1418.5	101.82
303.15 K, x1 = 0.0996	1067.5	1.829
303.15 K, x1 = 0.199	1145.8	3.295
303.15 K, x1 = 0.299	1206.4	5.892
303.15 K, x1 = 0.3982	1254.1	9.654
303.15 K, x1 = 0.4985	1292.9	15.06
303.15 K, x1 = 0.5979	1325.1	22.44
303.15 K, x1 = 0.698	1352.4	32.24
303.15 K, x1 = 0.8	1376.1	44.95
303.15 K, x1 = 0.9012	1396.5	60.57
303.15 K, x1 = 1	1413.9	79.23
308.15 K, x1 = 0.0996	1062.1	1.689
308.15 K, x1 = 0.199	1140.6	2.979
308.15 K, x1 = 0.299	1201.3	5.234
308.15 K, x1 = 0.3982	1249.1	8.41
308.15 K, x1 = 0.4985	1288.1	12.88
308.15 K, x1 = 0.5979	1320.3	18.86
308.15 K, x1 = 0.698	1347.6	26.64
308.15 K, x1 = 0.8	1371.4	36.59
308.15 K, x1 = 0.9012	1391.9	48.62
308.15 K, x1 = 1	1409.3	62.74
313.15 K, x1 = 0.0996	1056.8	1.565
313.15 K, x1 = 0.199	1135.4	2.708
313.15 K, x1 = 0.299	1196.3	4.682
313.15 K, x1 = 0.3982	1244.2	7.39
313.15 K, x1 = 0.4985	1283.2	11.12
313.15 K, x1 = 0.5979	1315.5	16.03
313.15 K, x1 = 0.698	1342.9	22.31
313.15 K, x1 = 0.8	1366.8	30.21
313.15 K, x1 = 0.9012	1387.2	39.65
313.15 K, x1 = 1	1404.8	50.56
318.15 K, x1 = 0.0996	1051.4	1.456
318.15 K, x1 = 0.199	1130.3	2.472
318.15 K, x1 = 0.299	1191.3	4.215
318.15 K, x1 = 0.3982	1239.3	6.543
318.15 K, x1 = 0.4985	1278.4	9.697
318.15 K, x1 = 0.5979	1310.8	13.78
318.15 K, x1 = 0.698	1338.2	18.9
318.15 K, x1 = 0.8	1362.1	25.27
318.15 K, x1 = 0.9012	1382.6	32.78
318.15 K, x1 = 1	1400.2	41.38
323.15 K, x1 = 0.0996	1046	1.359
323.15 K, x1 = 0.199	1125.1	2.268
323.15 K, x1 = 0.299	1186.3	3.816
323.15 K, x1 = 0.3982	1234.4	5.835
323.15 K, x1 = 0.4985	1273.6	8.523
323.15 K, x1 = 0.5979	1306	11.95
323.15 K, x1 = 0.698	1333.6	16.18
323.15 K, x1 = 0.8	1357.5	21.39
323.15 K, x1 = 0.9012	1378	27.46
323.15 K, x1 = 1	1395.6	34.32
328.15 K, x1 = 0.0996	1040.5	1.271
328.15 K, x1 = 0.199	1119.8	2.09
328.15 K, x1 = 0.299	1181.2	3.473
328.15 K, x1 = 0.3982	1229.5	5.245
328.15 K, x1 = 0.4985	1268.7	7.565
328.15 K, x1 = 0.5979	1301.3	10.47
328.15 K, x1 = 0.698	1328.8	14.02
328.15 K, x1 = 0.8	1352.8	18.35
328.15 K, x1 = 0.9012	1373.4	23.33
328.15 K, x1 = 1	1391	28.91
